From PubChem BioAssay (NCI)
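Five compound concentrations were applied to cells in 96-well plates for 48 hours; endpoints were derived by simple linear interpolation of the resulting dose-response curve. GI50 = concentration required for 50% inhibition of growth. TGI marks complete inhibition of growth.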

Tests used:
Experiment in all cases: NCI tumour cell line growth inhibition, 48 h
[1] = tested on: KM12 colon
[2] = tested on: MOLT-4 leukemia
[3] = tested on: BT-549 breast
[4] = tested on: HL-60(TB) leukemia
[5] = tested on: SF-268 CNS
[6] = tested on: UACC-62 melanoma
[7] = tested on: RPMI-8226 leukemia
[8] = tested on: SK-MEL-28 melanoma
[9] = tested on: MDA-MB-231 breast
[10] = tested on: SK-OV-3 ovarian
[11] = tested on: SF-295 CNS
[12] = tested on: OVCAR-4 ovarian
[13] = tested on: MDA-MB-435
[14] = tested on: HT29 colon
[15] = tested on: UO-31 renal
[16] = tested on: OVCAR-3 ovarian
[17] = tested on: RXF 393 renal
[18] = tested on: LOX IMVI melanoma
[19] = tested on: 786-0 renal
[20] = tested on: A498 renal
[21] = tested on: NCI/ADR-RES ovarian
[22] = tested on: SNB-75 CNS
[23] = tested on: NCI-H23 lung
[24] = tested on: HOP-62 NSCLC
[25] = tested on: PC-3 prostate
[26] = tested on: T-47D breast
[27] = tested on: SNB-19 CNS
[28] = tested on: MCF7 breast
[29] = tested on: EKVX NSCLC
[30] = tested on: SN12C renal
[31] = tested on: OVCAR-5 ovarian
[32] = tested on: A549 NSCLC
[33] = tested on: ACHN renal
[34] = tested on: U251 CNS
[35] = tested on: HOP-92 NSCLC
[36] = tested on: TK-10 renal
[37] = tested on: SK-MEL-5 melanoma
[38] = tested on: UACC-257 melanoma
[39] = tested on: DU-145 prostate
[40] = tested on: HCC-2998 colon
[41] = tested on: M14 melanoma
[42] = tested on: IGROV1 ovarian
[43] = tested on: K-562 leukemia
[44] = tested on: HCT-116 colon
[45] = tested on: NCI-H460 lung
[46] = tested on: CCRF-CEM leukemia
[47] = tested on: CAKI-1 renal
[48] = tested on: SW-620 colon
[49] = tested on: SR leukemia
[50] = tested on: HCT-15 colon
[51] = tested on: SK-MEL-2 melanoma
[52] = tested on: MALME-3M melanoma
[53] = tested on: MDA-MB-468 breast
[54] = tested on: HS 578T breast
[55] = tested on: NCI-H226 lung
[56] = tested on: COLO 205 colon
[57] = tested on: SF-539 CNS
[58] = tested on: OVCAR-8 ovarian
[59] = tested on: NCI-H522 lung

CN(C)c1nc(NCCNS(=O)(=O)c2ccc(C(=O)/C=C/c3ccccc3)cc2)nc(Nc2ccc(F)cc2)n1
GI50 [1]: 3.74 µM
TGI [1]: 14 µM
GI50 [2]: 3.22 µM
TGI [2]: 29.6 µM
GI50 [3]: 13.9 µM
TGI [3]: 27.5 µM
GI50 [4]: 3.88 µM
TGI [4]: 29.3 µM
GI50 [5]: 5.65 µM
TGI [5]: 22.2 µM
GI50 [6]: 6.68 µM
TGI [6]: 20.3 µM
GI50 [7]: 3.04 µM
TGI [7]: > 100 µM
GI50 [8]: 10.2 µM
TGI [8]: 22.2 µM
GI50 [9]: 4.84 µM
TGI [9]: 18.1 µM
GI50 [10]: 13 µM
TGI [10]: 29.7 µM
GI50 [11]: 6.96 µM
TGI [11]: 19.3 µM
GI50 [12]: 4.39 µM
TGI [12]: 23.1 µM
GI50 [13]: 7.44 µM
TGI [13]: 23 µM
GI50 [14]: 3.08 µM
TGI [14]: 10.6 µM
GI50 [15]: 4.6 µM
TGI [15]: 17.2 µM
GI50 [16]: 8.59 µM
TGI [16]: 21.4 µM
GI50 [17]: 2.94 µM
TGI [17]: 14.6 µM
GI50 [18]: 2.47 µM
TGI [18]: 7.14 µM
GI50 [19]: 11.2 µM
TGI [19]: 25.3 µM
GI50 [20]: 11.6 µM
TGI [20]: 24 µM
GI50 [21]: 7.33 µM
TGI [21]: 21.1 µM
GI50 [22]: 3.23 µM
TGI [22]: 33.4 µM
GI50 [23]: 10.1 µM
TGI [23]: 22.5 µM
GI50 [24]: 11.8 µM
TGI [24]: 26.8 µM
GI50 [25]: 4.39 µM
TGI [25]: 20.6 µM
GI50 [26]: 3.45 µM
TGI [26]: 14.2 µM
GI50 [27]: 10.4 µM
TGI [27]: 23 µM
GI50 [28]: 1.99 µM
TGI [28]: 4.05 µM
GI50 [29]: 4.48 µM
TGI [29]: 14.8 µM
GI50 [30]: 8.2 µM
TGI [30]: 20.7 µM
GI50 [31]: 13.3 µM
TGI [31]: 26.6 µM
GI50 [32]: 8.33 µM
TGI [32]: 26 µM
GI50 [33]: 4.92 µM
TGI [33]: 17.3 µM
GI50 [34]: 10.4 µM
TGI [34]: 24.5 µM
GI50 [35]: 8.1 µM
TGI [35]: 23.4 µM
GI50 [36]: 14.6 µM
TGI [36]: 30.9 µM
GI50 [37]: 4.7 µM
TGI [37]: 16.9 µM
GI50 [38]: 12.6 µM
TGI [38]: 27.8 µM
GI50 [39]: 12.1 µM
TGI [39]: 25.3 µM
GI50 [40]: 2.35 µM
TGI [40]: 5.46 µM
GI50 [41]: 5.98 µM
TGI [41]: 20 µM
GI50 [42]: 11.2 µM
TGI [42]: 23.8 µM
GI50 [43]: 3.34 µM
TGI [43]: 18.6 µM
GI50 [44]: 1.72 µM
TGI [44]: 3.24 µM
GI50 [45]: 4.34 µM
TGI [45]: 16.8 µM
GI50 [46]: 6.59 µM
TGI [46]: > 100 µM
GI50 [47]: 4.75 µM
TGI [47]: 19.7 µM
GI50 [48]: 5.56 µM
TGI [48]: 20.4 µM
GI50 [49]: 2.58 µM
TGI [49]: 8.25 µM
GI50 [50]: 2.04 µM
TGI [50]: 3.84 µM
GI50 [51]: 10.6 µM
TGI [51]: 24.3 µM
GI50 [52]: 12.7 µM
TGI [52]: 26.3 µM
GI50 [53]: 2.84 µM
TGI [53]: 12.8 µM
GI50 [54]: 7.39 µM
TGI [54]: 57.8 µM
GI50 [55]: 5.22 µM
TGI [55]: 19.8 µM
GI50 [56]: 5.46 µM
TGI [56]: 20.8 µM
GI50 [57]: 12 µM
TGI [57]: 24.5 µM
GI50 [58]: 12.2 µM
TGI [58]: 26.4 µM
GI50 [59]: 5.47 µM
TGI [59]: 20.4 µM
